Measurements taken from publication PMC2758050 (Bioorganic & medicinal chemistry letters, 2009).
Read-outs that look alike come from different tables or passages of the source.

Columns and labels:
hMC1R = settings: cited from earlier work; for EC50: read-out: EC50 hMC1R, agonist
[1] = test system: DNA damage resulting from exposure to solar UV radiation; settings: compared with α-MSH; ref 4a; cited from earlier work
mMC1R = mMC1R (Mus musculus, UniProt Q01727); experiment: Agonist activity of N-capped tripeptides on mouse MC1 receptor
mMC4R = mMC4R (Mus musculus, UniProt P56450); experiment: Agonist activity of N-capped tripeptides on mouse MC4 receptor
mMC5R = mMC5R (Mus musculus, UniProt P41149); experiment: Agonist activity of N-capped tripeptides on mouse MC5 receptor
hMC3R = settings: ref 3b; cited from earlier work
hMC4R = settings: ref 3b; cited from earlier work

mMC1R, sequence (Q01727 whole entry): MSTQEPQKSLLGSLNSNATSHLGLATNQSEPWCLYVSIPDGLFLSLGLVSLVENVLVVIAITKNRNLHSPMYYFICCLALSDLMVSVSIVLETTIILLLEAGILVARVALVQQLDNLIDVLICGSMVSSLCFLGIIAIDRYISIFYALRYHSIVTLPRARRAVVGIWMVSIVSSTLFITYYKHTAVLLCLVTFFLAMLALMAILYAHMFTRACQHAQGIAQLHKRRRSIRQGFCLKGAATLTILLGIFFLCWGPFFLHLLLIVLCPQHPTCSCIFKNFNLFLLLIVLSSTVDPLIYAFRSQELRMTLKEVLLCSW
mMC5R, sequence (P41149 whole entry): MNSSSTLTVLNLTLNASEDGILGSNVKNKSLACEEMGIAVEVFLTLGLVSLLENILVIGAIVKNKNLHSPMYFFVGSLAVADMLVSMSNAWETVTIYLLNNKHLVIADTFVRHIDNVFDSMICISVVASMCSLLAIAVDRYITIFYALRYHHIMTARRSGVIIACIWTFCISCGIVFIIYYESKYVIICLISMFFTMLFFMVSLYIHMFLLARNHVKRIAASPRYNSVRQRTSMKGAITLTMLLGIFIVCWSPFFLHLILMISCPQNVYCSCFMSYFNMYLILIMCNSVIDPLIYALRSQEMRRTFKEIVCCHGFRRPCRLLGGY
mMC4R, sequence (P56450 whole entry): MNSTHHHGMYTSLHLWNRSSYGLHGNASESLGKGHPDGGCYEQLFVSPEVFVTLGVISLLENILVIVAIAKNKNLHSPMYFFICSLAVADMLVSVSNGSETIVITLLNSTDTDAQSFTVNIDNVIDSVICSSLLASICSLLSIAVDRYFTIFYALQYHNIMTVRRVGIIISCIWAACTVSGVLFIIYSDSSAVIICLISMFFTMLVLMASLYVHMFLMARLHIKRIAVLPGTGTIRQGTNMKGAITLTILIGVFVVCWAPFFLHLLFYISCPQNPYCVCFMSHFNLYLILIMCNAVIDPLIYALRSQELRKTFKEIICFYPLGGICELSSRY

| EC50 (mMC1R) [nM] | EC50 (mMC4R) [nM] | EC50 (mMC5R) [nM] | loss in potency compared to 1 at mMC1R (mMC1R; vs tetrapeptide 1) [fold] | SMILES | EC50 (hMC1R; ref 3a) [nM] | potency in repairing DNA damage resulting from solar UV radiation [1] | EC50 (hMC1R; ref 3b) [nM] | type of agonism at hMC1R (hMC1R; ref 3b) | type of agonism at hMC3R (hMC3R) | type of agonism at hMC4R (hMC4R) |
| --- | --- | --- | --- | --- | --- | --- | --- | --- | --- | --- |
| 1.6 ± 0.29 | 0.54 ± 0.19 | 0.33 ± 0.14 | – | N=C(N)NCCC[C@H](NC(=O)[C@@H](Cc1ccccc1)NC(=O)[C@H](Cc1c[nH]cn1)NC(=O)CCCc1ccccc1)C(=O)N[C@@H](Cc1c[nH]c2ccccc12)C(N)=O [Compound 1, Ph(CH2)3CO-His-D-Phe-Arg-Trp-NH2] | 0.01 | more potent than α-MSH | – | – | – | – |
| – | – | – | 590 | N=C(N)NCCC[C@H](NC(=O)[C@@H](Cc1ccccc1)NC(=O)[C@H](Cc1c[nH]cn1)NC(=O)CCCc1ccccc1)C(N)=O [Compound 2, Ph(CH2)3CO-His-D-Phe-Arg-NH2] | – | – | 5 | full hMC1 agonist | weak partial agonism | weak partial agonism |
